Laboratory results published in patent publication US12264159B2, “Functionalized heterocycles as antiviral agents” (Enanta Pharmaceuticals, Inc., priority 2018, dated 2025).

Key:
[1] = Compound induced cellular toxicity in HepG2 cells, ATPlite 1Step; assay type: cell-based; settings: human, three days exposure, 50% reduction of total ATP vs no drug controls
Description: At day 3, post seeding cells are treated with ATPlite 1Step according to the manufacturer's instructions.

[2] = tested on: HBV in 2.2.15 cells; test: 2.2.15 cells: viral product in cell lysates quantified via quantitative real time PCR; assay type: cell-based, hepatitis B virus (HBV); settings: Hepatitis B virus, 120 h, day 5 post treatment, 50% reduction of viral product vs no drug controls, readout (qPCR, HBsAg or HBeAg) not specified for the column
Outline: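 2.2.15 cells (35,000/well, DMEM/F12, 10% FBS, G418) were treated with 5-fold serial compound dilutions, 0.5% DMSO final. After 5 days, lysates were quantified by qPCR, or supernatant HBsAg/HBeAg by ELISA; EC50 is the concentration giving 50% reduction versus no-drug controls.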

SMILES | CC50 at 3 days [1] | EC50 [2]
CC(C)(C)[C@@H]1Cn2nc(-c3cccc(F)c3F)cc2-c2cc(=O)c(C(=O)O)cn21 [Example 30, (R)-6-(tert-butyl)-2-(2,3-difluorophenyl)-10-oxo-5,6-dihydro-10H-pyrazolo[1,5-a]pyrido[2,2-c]pyrazine-12-carboxylic acid] | > 25 µM | < 0.1 µM
CC(C)[C@@H]1Cn2nc(-c3ccc(F)cc3)c(-c3ccc(F)cc3)c2-c2cc(=O)c(C(=O)O)cn21 [Example 180, (R)-1,2-bis(4-fluorophenyl)-6-isopropyl-10-oxo-5,6-dihydro-10H-pyrazolo[1,5-a]pyrido[2,1-c]pyrazine-9-carboxylic acid] | 10 to 25 µM | < 0.1 µM
COc1ccc(OCc2ccccc2)cc1-c1cc2n(n1)C[C@@H](C(C)(C)C)n1cc(C(=O)O)c(=O)cc1-2 [Example 36, (R)-2-(5-(benzyloxy)-2-methoxyphenyl)-6-(tert-butyl)-10-oxo-5,6-dihydro-10H-pyrazolo[1,5-a]pyrido[2,2-c]pyrazine-12-carboxylic acid] | > 25 µM | < 0.1 µM
CC(C)(C)[C@@H]1Cn2ncc(-c3ccco3)c2-c2cc(=O)c(C(=O)O)cn21 [Example 108, (R)-6-(tert-butyl)-1-(furan-2-yl)-10-oxo-5,6-dihydro-10H-pyrazolo[1,5-a]pyrido[2,1-c]pyrazine-9-carboxylic acid] | 10 to 25 µM | < 0.1 µM
CC(C)[C@@H]1Cn2nc(-c3cccc(F)c3)c(-c3cccc(F)c3)c2-c2c(F)c(=O)c(C(=O)O)cn21 [Example 188, (R)-11-fluoro-1,2-bis(3-fluorophenyl)-6-isopropyl-10-oxo-5,6-dihydro-10H-pyrazolo[1,5-a]pyrido[2,1-c]pyrazine-9-carboxylic acid] | > 25 µM | < 0.1 µM
CC(C)(C)[C@@H]1Cn2ncc(-c3ccc4c(c3F)OCO4)c2-c2cc(=O)c(C(=O)O)cn21 [Example 122, (R)-6-(tert-butyl)-1-(4-fluorobenzo[d][1,3]dioxol-5-yl)-10-oxo-5,6-dihydro-10H-pyrazolo[1,5-a]pyrido[2,1-c]pyrazine-9-carboxylic acid] | > 25 µM | < 0.1 µM
CC(C)(C)[C@@H]1Cn2nc(-c3ccc(C(F)(F)F)cc3)cc2-c2cc(=O)c(C(=O)O)cn21 [Example 9, (R)-6-(tert-butyl)-10-oxo-2-(4-(trifluoromethyl)phenyl)-5,6-dihydro-10H-pyrazolo[1,5-a]pyrido[2,2-c]pyrazine-12-carboxylic acid] | > 25 µM | < 0.1 µM
CC(C)(C)[C@@H]1Cn2nc(-c3cccc4c3OC(F)(F)O4)cc2-c2cc(=O)c(C(=O)O)cn21 [Example 21, (R)-6-(tert-butyl)-2-(2,2-difluorobenzo[d][1,3]dioxol-4-yl)-10-oxo-5,6-dihydro-10H-pyrazolo[1,5-a]pyrido[2,2-c]pyrazine-12-carboxylic acid] | > 25 µM | < 0.1 µM
O=C(O)c1cn2c(cc1=O)-c1c(-c3cccc(F)c3)c(-c3cccc(F)c3)nn1C[C@H]2C1COC1 [Example 209, (R)-1,2-bis(3-fluorophenyl)-6-(oxetan-3-yl)-10-oxo-5,6-dihydro-10H-pyrazolo[1,5-a]pyrido[2,1-c]pyrazine-9-carboxylic acid] | > 25 µM | < 0.1 µM
COCCOc1ccccc1-c1cc2n(n1)C[C@@H](C(C)(C)C)n1cc(C(=O)O)c(=O)cc1-2 [Example 79, (R)-6-(tert-butyl)-2-(2-(2-methoxyethoxy)phenyl)-10-oxo-5,6-dihydro-10H-pyrazolo[1,5-a]pyrido[2,2-c]pyrazine-12-carboxylic acid] | > 25 µM | < 0.1 µM
CC(C)(C)[C@@H]1Cn2ncc(-c3c(F)ccc4c3OCO4)c2-c2cc(=O)c(C(=O)O)cn21 [Example 123, (R)-6-(tert-butyl)-1-(5-fluorobenzo[d][1,3]dioxol-4-yl)-10-oxo-5,6-dihydro-10H-pyrazolo[1,5-a]pyrido[2,1-c]pyrazine-9-carboxylic acid] | > 25 µM | < 0.1 µM
COc1ccc(OC)c(-c2cc3n(n2)C[C@@H](C(C)(C)C)n2cc(C(=O)O)c(=O)cc2-3)c1 [Example 32, (R)-6-(tert-butyl)-2-(2,5-dimethoxyphenyl)-10-oxo-5,6-dihydro-10H-pyrazolo[1,5-a]pyrido[2,2-c]pyrazine-12-carboxylic acid] | > 25 µM | < 0.1 µM
CC(C)(C)[C@@H]1Cn2nc(-c3c(F)cccc3Cl)cc2-c2cc(=O)c(C(=O)O)cn21 [Example 65, (R)-6-(tert-butyl)-2-(2-chloro-6-fluorophenyl)-10-oxo-5,6-dihydro-10H-pyrazolo[1,5-a]pyrido[2,2-c]pyrazine-12-carboxylic acid] | > 25 µM | < 0.1 µM
COc1ccc(OC(F)(F)F)cc1-c1cc2n(n1)C[C@@H](C(C)(C)C)n1cc(C(=O)O)c(=O)cc1-2 [Example 33, (R)-6-(tert-butyl)-2-(2-methoxy-5-(trifluoromethoxy)phenyl)-10-oxo-5,6-dihydro-10H-pyrazolo[1,5-a]pyrido[2,2-c]pyrazine-12-carboxylic acid] | > 25 µM | < 0.1 µM
Cc1cccc(C)c1-c1cc2n(n1)C[C@@H](C(C)(C)C)n1cc(C(=O)O)c(=O)cc1-2 [Example 62, (R)-6-(tert-butyl)-2-(2,6-dimethylphenyl)-10-oxo-5,6-dihydro-10H-pyrazolo[1,5-a]pyrido[2,2-c]pyrazine-12-carboxylic acid] | > 25 µM | 0.2 to 1 µM
COc1ccc(-c2cc3n(n2)C[C@@H](C(C)(C)C)n2cc(C(=O)O)c(=O)cc2-3)cc1 [Example 10, (R)-6-(tert-butyl)-2-(4-methoxyphenyl)-10-oxo-5,6-dihydro-10H-pyrazolo[1,5-a]pyrido[2,2-c]pyrazine-12-carboxylic acid] | > 25 µM | < 0.1 µM
CC(C)(C)[C@@H]1Cn2nc(-c3cccc4ccoc34)cc2-c2cc(=O)c(C(=O)O)cn21 [Example 27, (R)-2-(benzofuran-7-yl)-6-(tert-butyl)-10-oxo-5,6-dihydro-10H-pyrazolo[1,5-a]pyrido[2,2-c]pyrazine-12-carboxylic acid] | > 25 µM | < 0.1 µM
COc1cccc(C(N)=O)c1-c1cc2n(n1)C[C@@H](C(C)(C)C)n1cc(C(=O)O)c(=O)cc1-2 [Example 52, (R)-6-(tert-butyl)-2-(2-carbamoyl-6-methoxyphenyl)-10-oxo-5,6-dihydro-10H-pyrazolo[1,5-a]pyrido[2,2-c]pyrazine-12-carboxylic acid] | > 25 µM | 0.2 to 1 µM
CC(C)(C)[C@@H]1Cn2nc(-c3ccc(F)cc3)c(-c3cccc(F)c3)c2-c2cc(=O)c(C(=O)O)cn21 [Example 168, (R)-6-(tert-butyl)-1-(3-fluorophenyl)-2-(4-fluorophenyl)-10-oxo-5,6-dihydro-10H-pyrazolo[1,5-a]pyrido[2,1-c]pyrazine-9-carboxylic acid] | 10 to 25 µM | < 0.1 µM
CNc1ncc(-c2cc3n(n2)C[C@@H](C(C)(C)C)n2cc(C(=O)O)c(=O)cc2-3)cn1 [Example 14, (R)-6-(tert-butyl)-2-(2-(methylamino)pyrimidin-5-yl)-10-oxo-5,6-dihydro-10H-pyrazolo[1,5-a]pyrido[2,2-c]pyrazine-12-carboxylic acid] | > 25 µM | 0.2 to 1 µM
CC(C)(C)[C@@H]1Cn2nc(C3CC3)c(-c3cnsc3)c2-c2cc(=O)c(C(=O)O)cn21 [Example 162, (R)-6-(tert-butyl)-2-cyclopropyl-1-(isothiazol-4-yl)-10-oxo-5,6-dihydro-10H-pyrazolo[1,5-a]pyrido[2,1-c]pyrazine-9-carboxylic acid] | > 25 µM | < 0.1 µM
CC(C)(C)[C@@H]1Cn2ncc(-c3cccc(OC(F)(F)F)c3)c2-c2cc(=O)c(C(=O)O)cn21 [Example 116, (R)-6-(tert-butyl)-10-oxo-1-(3-(trifluoromethoxy)phenyl)-5,6-dihydro-10H-pyrazolo[1,5-a]pyrido[2,1-c]pyrazine-9-carboxylic acid] | > 25 µM | < 0.1 µM
Cc1ccc(-c2cc3n(n2)C[C@@H](C(C)(C)C)n2cc(C(=O)O)c(=O)cc2-3)cc1 [Example 20, (R)-6-(tert-butyl)-10-oxo-2-(p-tolyl)-5,6-dihydro-10H-pyrazolo[1,5-a]pyrido[2,2-c]pyrazine-12-carboxylic acid] | > 25 µM | < 0.1 µM
CC(C)(C)[C@@H]1Cn2nc(-c3cccc4c3OCO4)cc2-c2cc(=O)c(C(=O)O)cn21 [Example 26, (R)-2-(benzo[d][1,3]dioxol-4-yl)-6-(tert-butyl)-10-oxo-5,6-dihydro-10H-pyrazolo[1,5-a]pyrido[2,2-c]pyrazine-12-carboxylic acid] | > 25 µM | < 0.1 µM
CC(C)c1ccccc1-c1cc2n(n1)C[C@@H](C(C)(C)C)n1cc(C(=O)O)c(=O)cc1-2 [Example 83, (R)-6-(tert-butyl)-2-(2-isopropylphenyl)-10-oxo-5,6-dihydro-10H-pyrazolo[1,5-a]pyrido[2,2-c]pyrazine-12-carboxylic acid] | > 25 µM | 0.2 to 1 µM
Cc1cccc(-c2cnn3c2-c2cc(=O)c(C(=O)O)cn2[C@H](C(C)(C)C)C3)c1 [Example 125, (R)-6-(tert-butyl)-10-oxo-1-(m-tolyl)-5,6-dihydro-10H-pyrazolo[1,5-a]pyrido[2,1-c]pyrazine-9-carboxylic acid] | > 25 µM | < 0.1 µM
CC(C)(C)[C@@H]1Cn2nc(-c3ccccc3OC3CC3)cc2-c2cc(=O)c(C(=O)O)cn21 [Example 81, (R)-6-(tert-butyl)-2-(2-cyclopropoxyphenyl)-10-oxo-5,6-dihydro-10H-pyrazolo[1,5-a]pyrido[2,2-c]pyrazine-12-carboxylic acid] | > 25 µM | < 0.1 µM
